This note sets out measurements from patent publication US9187472B2 (AbbVie Inc., priority 2012, dated 2015).

The target of assay [1] is NAMPT (human, recombinant, C-terminally His-tagged) (Homo sapiens, UniProt P43490). The experiment in a line: Time-Resolved Fluorescence Resonance Energy Transfer (TR-FRET) Binding Assay of NAMPT. The conditions noted are these: without substrates; 6.8 nM NAMPT, 200 nM probe, 3 hours equilibration. A digest of the protocol:
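11-pt half-log compound series; final 6.8 nM NAMPT, 200 nM OG488 nicotinamide-competitive probe, 1 nM Tb-anti-His Ab, 2% DMSO, HEPES pH 7.5/NaCl/MgCl2/DTT/glycerol buffer. 3 h RT equilibration. Em520/Em495 ratio (Ex 337 nm), control-normalized, 4-parameter fit → IC50.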
For orientation: In TR-FRET formats the signal depends on donor and acceptor labels being close together.

The next assay addresses NAMPT (Homo sapiens, UniProt P43490). The experiment in a line: TR-FRET Binding Assay of NAMPT with PRPP. As to conditions: with 200 μM PRPP and 2.5 mM ATP; 2 nM NAMPT, 2 nM probe, 16 hours equilibration. A digest of the protocol: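 TR-FRET probe-displacement binding with 2 nM NAMPT, 2 nM probe and 1 nM Tb-anti-His antibody, run in the presence of 200 μM PRPP and 2.5 mM ATP at 2% DMSO. Equilibrated 16 hours before reading so test compounds could undergo enzymatic modification.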

In a further assay the test system is PC3 cells. The experiment in a line: NAMPT Cell Proliferation Assay. The class given is cell-based. The conditions noted are these: Homo sapiens, PC-3, 120 h, 5 days incubation, cell viability by Cell Titer Glo. The gist of the method: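 Seed PC3 at 500 cells/well (RPMI, 10% HI-FBS), attach overnight; add compound, 10-fold series 10 μM → 1×10^−5 μM; incubate 5 d, 37° C/5% CO2; luminescent viability readout; fit % inhibition sigmoidally for IC50.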
(In general: Cellular ATP, detected with luciferase, serves as a proxy for viable cell number.)

Chain of NAMPT (human, recombinant, C-terminally His-tagged) (P43490 whole entry): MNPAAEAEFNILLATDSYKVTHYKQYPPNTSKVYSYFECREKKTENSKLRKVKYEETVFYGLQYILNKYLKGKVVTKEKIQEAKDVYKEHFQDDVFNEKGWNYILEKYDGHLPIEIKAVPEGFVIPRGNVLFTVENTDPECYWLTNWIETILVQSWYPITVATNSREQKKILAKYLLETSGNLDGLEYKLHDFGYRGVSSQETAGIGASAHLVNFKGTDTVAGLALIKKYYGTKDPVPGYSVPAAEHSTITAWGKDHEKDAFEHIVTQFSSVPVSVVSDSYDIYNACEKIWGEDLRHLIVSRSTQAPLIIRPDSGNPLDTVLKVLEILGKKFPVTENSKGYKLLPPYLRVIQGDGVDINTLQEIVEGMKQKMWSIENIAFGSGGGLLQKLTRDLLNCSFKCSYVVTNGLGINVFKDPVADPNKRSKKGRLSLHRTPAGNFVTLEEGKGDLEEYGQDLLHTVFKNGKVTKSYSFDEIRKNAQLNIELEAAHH
Chain of NAMPT (P43490 whole entry): as above

One may read the IC50 as the concentration that gives 50% inhibition. For `CC(C)N1CCN(c2ncc(C(=O)NCc3ccn4ccnc4c3)s2)CC1` [Example 356, N-(imidazo[1,2-a]pyridin-7-ylmethyl)-2-[4-(propan-2-yl)piperazin-1-yl]-1,3-thiazole-5-carboxamide], the IC50 in assay [1] was more than 10000 nM; on NAMPT it was 0.169 nM; in the assay with PC3 cells it was 1020 nM.

Consider `O=C(NCc1ccn2ccnc2c1)Nc1ccc(C2CCN(C(=O)C3CCOCC3)C2)cc1` (stereo not drawn) [Example 389, 1-(imidazo[1,2-a]pyridin-7-ylmethyl)-3-{4-[1-(tetrahydro-2H-pyran-4-ylcarbonyl)pyrrolidin-3-yl]phenyl}urea], for which the IC50 in assay [1] is 584 nM; on NAMPT it was 0.617 nM; in the assay with PC3 cells, 78.3 nM.

For `COc1cc(CCC(=O)N(CC2CCCO2)c2ncc(C(=O)NCc3ccc4nccn4c3)s2)on1` (stereo not drawn) [Example 127, N-(imidazo[1,2-a]pyridin-6-ylmethyl)-2-{[3-(3-methoxy-1,2-oxazol-5-yl)propanoyl](tetrahydrofuran-2-ylmethyl)amino}-1,3-thiazole-5-carboxamide], the IC50 came to 52.2 nM in assay [1], 0.522 nM on NAMPT and 2.34 nM in the assay on PC3 cells.

In the case of `O=C(NCc1ccn2ccnc2c1)c1ccc(C2CCN(C(=O)c3ccncc3)C2)cc1` (stereo not drawn) [Example 608, N-(imidazo[1,2-a]pyridin-7-ylmethyl)-4-[1-(pyridin-4-ylcarbonyl)pyrrolidin-3-yl]benzamide], the IC50 in assay [1] was determined as 481 nM; on NAMPT, 0.51 nM; in the assay with PC3 cells it was 148 nM.

Consider `COC1(Cn2ncc(-c3ccc(C(=O)NCc4ccn5ccnc5c4)s3)c2C)CCCC(C)(C)C1` (stereo not drawn) [Example 273, N-(imidazo[1,2-a]pyridin-7-ylmethyl)-5-{1-[(1-methoxy-3,3-dimethylcyclohexyl)methyl]-5-methyl-1H-pyrazol-4-yl}thiophene-2-carboxamide], for which the IC50 came out at 49.3 nM in assay [1], 0.555 nM at NAMPT and 2.35 nM with PC3 cells.

Take `O=C(NCc1ccn2ccnc2c1)c1ccc(C2CCN(C(=O)c3cnccn3)CC2)cc1` [Example 523, N-(imidazo[1,2-a]pyridin-7-ylmethyl)-4-[1-(pyrazin-2-ylcarbonyl)piperidin-4-yl]benzamide]: the IC50 in assay [1] stood at 343 nM; at NAMPT it was 0.422 nM; in the assay on PC3 cells, 17.1 nM.

For the compound `Cc1ccc(C(=O)N2CCC(c3ccc(C(=O)NCc4ccn5ccnc5c4)cc3)CC2)cc1` [Example 500, N-(imidazo[1,2-a]pyridin-7-ylmethyl)-4-[1-(4-methylbenzoyl)piperidin-4-yl]benzamide], the figures for the 50% inhibitory concentration (IC50) (in assay [1]; at NAMPT; in the assay on PC3 cells) were 181 nM, 0.169 nM and 21.7 nM, respectively.

`CC(C)(C)OC(=O)N1CCC(c2ccc(C(=O)Nc3ccn4ccnc4c3)cc2)CC1` [Example 322, tert-butyl 4-[4-(imidazo[1,2-a]pyridin-7-ylcarbamoyl)phenyl]piperidine-1-carboxylate]: the IC50 was 6040 nM in assay [1], 34.1 nM on NAMPT and more than 10000 nM with PC3 cells.

Turning to `O=C(NCc1ccn2ccnc2c1)Nc1ccc(OC2CCN(C(=O)C3CCOCC3)CC2)cc1` [Example 450, 1-(imidazo[1,2-a]pyridin-7-ylmethyl)-3-(4-{[1-(tetrahydro-2H-pyran-4-ylcarbonyl)piperidin-4-yl]oxy}phenyl)urea], the IC50 was 422 nM in assay [1], 0.244 nM on NAMPT and 70.1 nM with PC3 cells.

Take `CC(C)C(=O)N1CC=C(c2ccc(C(=O)NCc3ccn4ccnc4c3)o2)CC1` [Example 744, N-(imidazo[1,2-a]pyridin-7-ylmethyl)-5-[1-(2-methylpropanoyl)-1,2,3,6-tetrahydropyridin-4-yl]furan-2-carboxamide]: the IC50 in assay [1] turned out to be 1080 nM; on NAMPT, 0.806 nM; in the assay with PC3 cells it was 505 nM.

As to `O=C(NCc1ccn2ccnc2c1)c1ccc(-c2cnn(C3CCS(=O)(=O)C3)c2)s1` (stereo not drawn) [Example 296, 5-[1-(1,1-dioxidotetrahydrothiophen-3-yl)-1H-pyrazol-4-yl]-N-(imidazo[1,2-a]pyridin-7-ylmethyl)thiophene-2-carboxamide], the results for the IC50 (in assay [1]; on NAMPT; in the assay on PC3 cells) were 67 nM, 0.226 nM and 11.5 nM, respectively.

Consider `O=C(NCCCCC1CCN(C(=O)CC2CC2)CC1)Nc1ccc2nccn2c1` [Example 64, 1-{4-[1-(cyclopropylacetyl)piperidin-4-yl]butyl}-3-imidazo[1,2-a]pyridin-6-ylurea], for which the results for the half-maximal inhibitory concentration (IC50) (in assay [1]; at NAMPT; in the assay with PC3 cells) were 518 nM, 0.495 nM and 19.8 nM, respectively.

Take `O=C(Nc1ccc(C(=O)Nc2ccccc2)cc1)Nc1ccc2nccn2c1` [Example 19, 4-[(imidazo[1,2-a]pyridin-6-ylcarbamoyl)amino]-N-phenylbenzamide]: the IC50 turned out to be 2680 nM in assay [1], 0.921 nM on NAMPT and 6630 nM with PC3 cells.

Regarding `O=C(NCc1ccn2ccnc2c1)c1ccc(C2CN(C(=O)c3cnccn3)C2)cc1` [Example 635, N-(imidazo[1,2-a]pyridin-7-ylmethyl)-4-[1-(pyrazin-2-ylcarbonyl)azetidin-3-yl]benzamide], the figures for the IC50 (in assay [1]; at NAMPT; with PC3 cells) were 462 nM, 0.975 nM and 50 nM, respectively.

For `O=C(NCc1ccn2ccnc2c1)c1ccc(C2(NC(=O)C3CCOCC3)CCC2)s1` [Example 473, N-(1-{5-[(imidazo[1,2-a]pyridin-7-ylmethyl)carbamoyl]thiophen-2-yl}cyclobutyl)tetrahydro-2H-pyran-4-carboxamide], the IC50 in assay [1] was more than 10000 nM; at NAMPT it was 1.01 nM; in the assay with PC3 cells it was 7850 nM.

In the case of `O=C(NCc1ccn2ccnc2c1)c1ccc(C2CCN(C(=O)C3COCCO3)C2)cc1` (stereo not drawn) [Example 377, 4-[1-(1,4-dioxan-2-ylcarbonyl)pyrrolidin-3-yl]-N-(imidazo[1,2-a]pyridin-7-ylmethyl)benzamide], the IC50 in assay [1] was 1670 nM; at NAMPT, 0.275 nM; in the assay on PC3 cells, more than 10000 nM.

For the compound `O=C(CCC1CCCC1)Nc1ccc(C(=O)NCc2ccn3ccnc3c2)cc1` [Example 212, 4-[(3-cyclopentylpropanoyl)amino]-N-(imidazo[1,2-a]pyridin-7-ylmethyl)benzamide], the IC50 in assay [1] stood at 44.8 nM; at NAMPT, 0.21 nM; in the assay with PC3 cells it was 34.1 nM.

As to `O=C(NCc1ccn2ccnc2c1)c1ccc(C2CCN(C(=O)c3nccs3)C2)cc1` (stereo not drawn) [Example 613, N-(imidazo[1,2-a]pyridin-7-ylmethyl)-4-[1-(1,3-thiazol-2-ylcarbonyl)pyrrolidin-3-yl]benzamide], the results for the IC50 (in assay [1]; on NAMPT; with PC3 cells) were 347 nM, 0.916 nM and 140 nM, respectively.

As for `Cn1nccc1-c1ccc(C(=O)NCc2ccn3ccnc3c2)s1` [Example 363, N-(imidazo[1,2-a]pyridin-7-ylmethyl)-5-(1-methyl-1H-pyrazol-5-yl)thiophene-2-carboxamide], the results for the IC50 (in assay [1]; at NAMPT; with PC3 cells) were 588 nM, 0.305 nM and 7660 nM, respectively.

As to `CC(C)CCNC(=O)c1ccc(C(=O)NCc2ccc3nccn3c2)cc1` [Example 358, N-(imidazo[1,2-a]pyridin-6-ylmethyl)-N′-(3-methylbutyl)benzene-1,4-dicarboxamide], the IC50 stood at 1840 nM in assay [1], 2.19 nM on NAMPT and 2260 nM in the assay with PC3 cells.

`O=C(CCc1ccccc1)Nc1ccc(NC(=O)NCc2ccc3nccn3c2)cc1` [Example 279, N-(4-{[(imidazo[1,2-a]pyridin-6-ylmethyl)carbamoyl]amino}phenyl)-3-phenylpropanamide]: the IC50 in assay [1] is 68.8 nM; on NAMPT it was 0.437 nM; in the assay on PC3 cells, 869 nM.

Regarding `O=C(NCc1ccn2ccnc2c1)c1ccc(-c2cnn(C[C@@H]3CCCO3)c2)s1` [Example 397, N-(imidazo[1,2-a]pyridin-7-ylmethyl)-5-{1-[(2S)-tetrahydrofuran-2-ylmethyl]-1H-pyrazol-4-yl}thiophene-2-carboxamide], the figures for the IC50 (in assay [1]; on NAMPT; with PC3 cells) were 17.7 nM, 0.169 nM and 7.12 nM, respectively.

On to `O=C(CCC1CCCO1)Nc1ccc(C(=O)NCc2ccn3ccnc3c2)cc1` (stereo not drawn) [Example 210, N-(imidazo[1,2-a]pyridin-7-ylmethyl)-4-{[3-(tetrahydrofuran-2-yl)propanoyl]amino}benzamide], for which the figures for the IC50 (in assay [1]; at NAMPT; in the assay with PC3 cells) were 469 nM, 0.363 nM and 398 nM, respectively.

For `O=C(NCc1ccn2ccnc2c1)c1ccc(C2CCN(C(=O)c3ccccc3)C2)cc1` (stereo not drawn) [Example 370, 4-(1-benzoylpyrrolidin-3-yl)-N-(imidazo[1,2-a]pyridin-7-ylmethyl)benzamide], the IC50 in assay [1] stood at 47.6 nM; at NAMPT it was 0.175 nM; in the assay with PC3 cells it was 9.93 nM.

On to `O=C(NCc1ccn2ccnc2c1)c1ccc(-c2cnn(CC3CCCS(=O)(=O)C3)c2)s1` (stereo not drawn) [Example 344, 5-{1-[(1,1-dioxidotetrahydro-2H-thiopyran-3-yl)methyl]-1H-pyrazol-4-yl}-N-(imidazo[1,2-a]pyridin-7-ylmethyl)thiophene-2-carboxamide], for which the IC50 in assay [1] was found to be 36 nM; at NAMPT, 0.169 nM; in the assay with PC3 cells, 7.46 nM.
